Results taken from PMC9696794, “Synthesis and Antimicrobial Activity of Short Analogues of the Marine Antimicrobial Peptide Turgencin A: Effects of SAR Optimizations, Cys-Cys Cyclization and Lipopeptide Modifications” (International Journal of Molecular Sciences, 2022).
Where a SMILES comes first, the peptide text is derived from it. Bridges are numbered along the chain shown (N, C = ends). The star is where a group is joined. Lauroyl = CCCCCCCCCCCC(=O)*; Octanoyl = CCCCCCCC(=O)*

Test system: E. coli K12
Test: Bacterial biosensor viability assay (lux operon luminescence)
Type: cell-based, Escherichia coli
Settings: E. coli K12, within 3 min
Excerpt: Changes in light emission of sensor bacteria constitutively expressing the bacterial lux operon or a eukaryotic luciferase can be used as a proxy for viability and membrane integrity, respectively. Light production of the viability biosensors represents metabolic activity of the bacteria. For the membrane integrity assay on the other hand, light production depends on the influx of the externally added D-luciferin, which at neural pH will not readily pass the intact plasma membrane. An initial increase in light production therefore corresponds with damage to the plasma membrane and a concomitant influx of D-luciferin, while a subsequent drop in light emission indicates diminishing ATP reserves of the dying sensor bacteria.
Bacterial viability, based on light production by constitutively expressed bacterial luciferase, was measured in real time according to the method described by Hansen et al.. The assay was performed using B. subtilis 168 with chromosomally integrated luxABCDE operon and E. coli K12 carrying the plasmid pCGLS-11 containing the luxCDABE operon. […] No D-luciferin was added to the cell suspension. Each assay was performed at least three times independently, and the figures show a representative dataset.

For `CCCCCCCC(=O)N[C@H]1CSSC[C@@H](C(=O)N[C@@H](CCCCN)C(=O)N[C@@H](CC(C)C)C(N)=O)NC(=O)[C@H](CCCCN)NC(=O)[C@H](Cc2c[nH]c3ccccc23)NC(=O)CNC(=O)[C@H](Cc2c[nH]c3ccccc23)NC(=O)[C@H](Cc2c[nH]c3ccccc23)NC(=O)[C@H](CCCCN)NC(=O)[C@H](CCCCN)NC(=O)CNC1=O` [Peptide C8-cTurg-2, C8- (CGKKWWGWKC)KL-NH2] (Octanoyl-CGKKWWGWKCKL-NH2; disulfide 1-10), the “effect on viability (light emission)” value was “gradual, dose-dependent reduction in viability”.
For `CCCCCCCCCCCC(=O)N[C@H]1CSSC[C@@H](C(=O)N[C@@H](CCCCN)C(=O)N[C@@H](CC(C)C)C(N)=O)NC(=O)[C@H](CCCCN)NC(=O)[C@H](Cc2c[nH]c3ccccc23)NC(=O)CNC(=O)CNC(=O)[C@@H]2CCCN2C(=O)[C@H](CCCCN)NC(=O)[C@H](CCCCN)NC(=O)CNC1=O` [Peptide C12-cTurg-1, C12 -(CGKKPGGWKC)KL-NH2] (Lauroyl-CGKKPGGWKCKL-NH2; disulfide 1-10), the “effect on viability (light emission)” value was “gradual, dose-dependent reduction in viability”.
